# Laboratory results: patent publication US9453008B2, “Antithrombotic and antiatherosclerotic agent and method for producing same (variants)” (PROTON OOO, priority 2011, dated 2016)
# How the values were obtained:
# [1] = tested on: platelet aggregation induced by arachidonic acid; experiment: Platelet aggregation induced by arachidonic acid following peroral administration in rabbits; format: in vivo, rabbit
# Method: FIG. 3 is a graph showing the changes in platelet aggregation, induced by arachidonic acid, following peroral administration of the compound I in rabbits (% compared to control).
# Antiplatelet activity was assessed by the effect of the compound on platelet aggregation of rabbit blood plasma, induced by ADP (adenosine diphosphate) and arachidonic acid. Platelet aggregation was assessed by the change of optical density of plasma. Studies were performed using both intravenous administration, in comparison with sodium nitroprusside, and oral administration, in comparison with acetylsalicylic acid. Compound I was used in concentrations of 10^−3-10^−7 M (parenteral administration) and in 4-8 and 12 mg/kg doses (oral administration).
# Using arachidonic acid (AA) as an aggregation inductor, the experiments were performed in conditions of oral administration. We consider such experimentation justified by the possibility of different routes of administration for the tested compound, not only intravenous one (unlike sodium nitroprusside).
# [2] = molecular target: T1, soluble guanylate cyclase of human platelets (Homo sapiens, UniProt Q02108+Q02153); experiment: Specific activity of soluble guanylate cyclase of human platelets; format: biochemical; design: Activation: unit: % of initial activity
# T1 construct: soluble guanylate cyclase of human platelets; from tissue; host or cells: human platelets
# T1 sequence (Q02153 1-619): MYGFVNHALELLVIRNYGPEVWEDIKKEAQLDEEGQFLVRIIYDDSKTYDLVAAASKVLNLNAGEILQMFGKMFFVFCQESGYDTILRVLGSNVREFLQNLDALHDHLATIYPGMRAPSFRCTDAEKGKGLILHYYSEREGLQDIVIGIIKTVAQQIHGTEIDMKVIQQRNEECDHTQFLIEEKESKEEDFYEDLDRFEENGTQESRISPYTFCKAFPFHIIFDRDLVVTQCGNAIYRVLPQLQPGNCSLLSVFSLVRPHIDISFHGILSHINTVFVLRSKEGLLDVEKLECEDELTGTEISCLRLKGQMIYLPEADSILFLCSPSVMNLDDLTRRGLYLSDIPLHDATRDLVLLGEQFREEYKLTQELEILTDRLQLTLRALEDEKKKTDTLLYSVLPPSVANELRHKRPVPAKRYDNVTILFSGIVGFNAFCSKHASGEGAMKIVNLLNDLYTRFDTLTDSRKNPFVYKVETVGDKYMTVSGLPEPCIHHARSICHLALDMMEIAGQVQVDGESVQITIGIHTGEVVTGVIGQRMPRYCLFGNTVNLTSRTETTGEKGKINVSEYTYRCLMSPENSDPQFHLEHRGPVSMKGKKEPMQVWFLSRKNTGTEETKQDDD
# T1 sequence (Q02108 1-690): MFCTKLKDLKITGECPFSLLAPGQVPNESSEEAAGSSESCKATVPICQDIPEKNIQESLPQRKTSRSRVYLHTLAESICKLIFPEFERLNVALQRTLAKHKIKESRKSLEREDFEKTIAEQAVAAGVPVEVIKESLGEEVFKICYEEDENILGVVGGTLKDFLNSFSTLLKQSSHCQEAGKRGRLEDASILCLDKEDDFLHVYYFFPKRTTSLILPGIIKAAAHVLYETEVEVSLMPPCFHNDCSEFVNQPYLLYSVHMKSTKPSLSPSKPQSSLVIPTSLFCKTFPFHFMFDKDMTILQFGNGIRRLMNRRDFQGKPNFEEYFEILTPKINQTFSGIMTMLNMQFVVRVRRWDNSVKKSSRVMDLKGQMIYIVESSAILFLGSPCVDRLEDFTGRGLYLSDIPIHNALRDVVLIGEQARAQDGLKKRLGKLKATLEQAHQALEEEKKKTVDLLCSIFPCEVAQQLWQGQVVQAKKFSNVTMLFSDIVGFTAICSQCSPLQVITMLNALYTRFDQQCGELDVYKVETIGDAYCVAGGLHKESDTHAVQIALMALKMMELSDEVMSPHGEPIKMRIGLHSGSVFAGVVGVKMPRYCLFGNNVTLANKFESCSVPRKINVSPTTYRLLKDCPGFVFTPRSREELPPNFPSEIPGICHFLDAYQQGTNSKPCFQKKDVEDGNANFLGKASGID
# [3] = General toxicity and tolerability on animals; format: in vivo
# Method: Research of antiplatelet properties of the compound I, its effect on the activity of soluble guanylate cyclase and NO generation was performed by experimentation in vitro, its ability to exert hypotensive and antihypertensive action was studied on animals. General toxicity and tolerability of the compound of formula I were studied on animals.
# [4] = tested on: rat hemostasis; experiment: Model of parenchymal hemorrhage (bleeding time) after oral administration; format: in vivo
# Method: The model of parenchymal hemorrhage characterizes hemostasis through the stimulation of coagulation cascade. Usually, it is rather difficult to obtain considerable change of bleeding time in these models with resorptive-acting compounds. Direct-action anticoagulants (heparin, heparinoids) prolong bleeding time in these models only in high doses, while the effect is detected at different time (up to 3 hours after the administration). Indirect-action […] drugs (oxycoumarines, indandiones, etc.) usually begin to increase bleeding after a certain delay period (12-48 hours after the administration), which is easily explainable by the modern understanding of their mechanism of action: they stop the biosynthesis of blood clotting plasma factors II, VII, IX, X, while the duration of delay period is determined by the amount of these factors, produced in the liver before the administration of vitamin K reductase inhibitors (oxycoumarines, indandiones).
# The duration of parenchymal hemorrhage in the control group was 88.9±1.2 s. Test groups of animals used in the experiments 60 minutes after oral administration of the compound of formula I. After the administration of 8 mg/kg dose the duration of parenchymal hemorrhage in test group increased by 71% compared to original condition, it further increased to 220.6±3.4 s after another hour.
smiles,measurement,setting,value
"CN1CC(CO)O/C1=C(C#N)/C=C1/Nc2ccccc2C1=O (stereo not shown) [Compound I, 2-[2-Cyano-2-[5-(hydroxymethyl)-3-methyl-1,3-oxazolidin-2-ylidene]ethylidene]indolin-3-one]",Effect on platelet aggregation (statistically significant),[1]; after 2 hours (inductor not restated),32%
same,Effect on platelet aggregation,[1]; at 4 hour (inductor not restated),38%
same,Effect on platelet aggregation (as a tendency),[1]; end of the first hour (inductor not restated),up to 10%
same,Reduction of platelet aggregation induced by arachidonic acid,"[1]; oral, rabbits, 1 hour after the administration",reduced by a third
same,Action of AA at the end of the observation period,"[1]; oral, rabbits, 4 hours",comparable to the control
same,Inhibition of the action of the inductor (AA),"[1]; oral, rabbits, after 2 hour",by over two times
same,Duration of effect on AA-induced aggregation,[1]; per os,2 to 4 h
same,Activation of soluble guanylate cyclase (in words),[2],approaches that of L-arginine
same,average degree of activation of the enzyme,[2]; 0.1 mM concentration,2.12 times
same,"Activation, Mean M ± m","[2]; 0.1 mmol, mean of 5 samples",212 ± 67
same,"Specific activity of GC, Mean M ± m","[2]; 0.1 mmol, mean of 5 samples (initial 174 ± 33)",342 ± 86 pmol cGMP/min/mg protein
same,Activation,"[2]; 0.1 mmol, sample number 1",446
same,Specific activity of GC,"[2]; 0.1 mmol, sample number 1 (initial 133)",593 pmol cGMP/min/mg protein
same,Activation,"[2]; 0.1 mmol, sample number 2",153
same,Specific activity of GC,"[2]; 0.1 mmol, sample number 2 (initial 235)",450 pmol cGMP/min/mg protein
same,Activation,"[2]; 0.1 mmol, sample number 3",146
same,Specific activity of GC,"[2]; 0.1 mmol, sample number 3 (initial 100)",146 pmol cGMP/min/mg protein
same,Activation,"[2]; 0.1 mmol, sample number 4",189
same,Specific activity of GC,"[2]; 0.1 mmol, sample number 4 (initial 140)",265 pmol cGMP/min/mg protein
same,Activation,"[2]; 0.1 mmol, sample number 5",122
same,Specific activity of GC,"[2]; 0.1 mmol, sample number 5 (initial 211)",256 pmol cGMP/min/mg protein
same,General toxicity and tolerability,[3],"non-toxic, well tolerated"
same,Neurotoxicity,[3]; relatively high doses,does not exhibit neurotoxicity
same,Increase of duration of parenchymal hemorrhage compared to original condition,"[4]; 8 mg/kg oral, 60 minutes after administration",71%
same,Duration of parenchymal hemorrhage,"[4]; 8 mg/kg oral, after another hour (control 88.9±1.2 s)",220.6 ± 3.4 s
same,Duration of parenchymal hemorrhage vs control,"[4]; 8 mg/kg oral, end of experiment (240 min)",did not differ from the control group
same,Duration of bleeding,"[4]; 16 mg/kg oral, first 60 min of the observation",increased twofold
same,Effect on rat hemostasis in the model of parenchymal hemorrhage,"[4]; rat, in vivo",statistically significantly slows down rat hemostasis
